The values that follow come from patent US8895744B2, “Alfa-carboline inhibitors of NPM-ALK, RET, and Bcr-Abl” (Universita' Degli Studi di Milano-Bicocca, priority 2008, dated 2014).

Like-named read-outs stand apart in the source and are kept apart here.

One test concerns the target T1, Recombinant ALK kinase (Homo sapiens, UniProt Q9UM73).
T1 construct: made in house; host or cells: Sf9 insect cells (baculovirus)
Put plainly: ALK kinase inhibitory activity, ELISA-based in vitro kinase assay. The test is classed as biochemical. The gist of the method:
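Sf9-expressed, purified recombinant ALK phosphorylated a plate-coated peptide substrate with 0.3 mM ATP, Mn2+/Mg2+, pH 7.5, 15 min at 30° C, after 10 min inhibitor preincubation. Phosphotyrosine was detected by anti-pTyr ELISA (TMB, A450); IC50 in μM is the concentration giving 50% inhibition relative to control.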
In general terms: An ELISA detects its analyte on a solid surface through an enzyme-linked reagent.

The test system of test [1] is parent untransformed BaF3 cells. Put plainly: Tritiated thymidine uptake cell proliferation assay, parental BaF3 (control). Format: cell-based. The settings on record: Mus musculus, 3[H]-thymidine uptake, 72 h, medium with IL-3, read-out: BaF parental IC50. The gist of the method:
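Control lines were parental BaF3 in IL-3-supplemented medium and ALK-, Abl- or RET-negative U937, seeded at 10 000 cells/well with serial inhibitor dilutions for 72 h at 37 °C. ³H-thymidine (1 μCi/well) was added for the final 16 h; IC50 (μM) is the concentration halving uptake versus DMSO.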

The target of test [2] is T2, BaF3 cells transformed with the oncogenic fusion protein NPM/ALK (Homo sapiens, UniProt Q9UM73).
T2 construct: fused on or other part: P06748 (Nucleophosmin)
Put plainly: Tritiated thymidine uptake cell proliferation assay, BaF3 NPM/ALK. The settings on record: 3[H]-thymidine uptake, 72 h; read-out: BaF NPM/ALK IC50. The test is classed as cell-based. An outline of the steps:
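Cells were seeded at 10 000/well with serial inhibitor dilutions or DMSO vehicle and incubated 72 h at 37 °C, with ^3[H]-thymidine (1 μCi/well) added for the final 16 h. Incorporation was read by β scintillation counting. IC50 (μM) is the concentration giving a 50% decrease in uptake versus controls.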

The subject of test [3] is NPM/ALK positive SUDHL-1 cells. As to the kind of experiment: Tritiated thymidine uptake cell proliferation assay, SUDHL-1. The test is classed as cell-based. The settings on record: 3[H]-thymidine uptake, 72 h. The method, then:
Inhibition of the proliferation of NPM/ALK positive cells
(§1) Method: Tritiated Thymidine Uptake Cell Proliferation Assay
(§2) The following procedure was used with parent untransformed BaF3 cells, BaF3 cells transformed with the oncogenic fusion protein NPM/ALK, NPM/ALK positive SUDHL-1 cells, ALK-negative U937 cells, NPM/ALK positive KARPAS-299 cells. The parent untransformed BaF3 cells and Alk-negative U937 cells are used as controls. Cells were seeded in U-bottomed 96-well plates at 10 000 cells/well in a volume of 100 μL in supplemented medium. In the case of the parent untransformed BaF3 cells, the medium was supplemented with IL-3. Serial dilutions of inhibitors were added to the appropriate wells and volumes adjusted to 200 μL. Controls were treated with the equivalent volume of vehicle, DMSO, alone. Plates were incubated at 37° C. for 72 h. ^3[H]-thymidine (1 μCi/well) was added for the last 16 h of incubation. Cells were harvested on to paper filters and ^3[H]-thymidine incorporation was measured using a β scintillation counter (1430 MicroBeta, Wallac, Turku, Finland). The 50% inhibitory concentration (IC50) was defined as the concentration of inhibitor, expressed in micromolar, that gave a 50% decrease in ^3[H]-thymidine uptake compared with controls.

Another test relates to ALK-negative U937 cells. As to the kind of experiment: Tritiated thymidine uptake cell proliferation assay, U937 (control). To be noted: Homo sapiens, U-937; 3[H]-thymidine uptake, 72 h. Format: cell-based. On the procedure:
as §1
as §2, with “with controls. […]” for “with controls.”
as §2, with “RET-PTC2, or RET-negative 11937” for “NPM/ALK, NPM/ALK positive SUDHL-1 cells, ALK-negative U937 cells, NPM/ALK positive KARPAS-299”, “RET-negative” for “Alk-negative”

Setting [4] is: purified rALK, 0.3 mM ATP, read-out: ALK IC50.
The mark [5] stands for this setting: repeated determinations, 1st, read-out: ALK IC50, 1st determination.
The mark [6] stands for this setting: repeated determinations, 2nd or 'then'.

T2 sequence (Q9UM73 whole entry, change not shown, the tested form may be a part): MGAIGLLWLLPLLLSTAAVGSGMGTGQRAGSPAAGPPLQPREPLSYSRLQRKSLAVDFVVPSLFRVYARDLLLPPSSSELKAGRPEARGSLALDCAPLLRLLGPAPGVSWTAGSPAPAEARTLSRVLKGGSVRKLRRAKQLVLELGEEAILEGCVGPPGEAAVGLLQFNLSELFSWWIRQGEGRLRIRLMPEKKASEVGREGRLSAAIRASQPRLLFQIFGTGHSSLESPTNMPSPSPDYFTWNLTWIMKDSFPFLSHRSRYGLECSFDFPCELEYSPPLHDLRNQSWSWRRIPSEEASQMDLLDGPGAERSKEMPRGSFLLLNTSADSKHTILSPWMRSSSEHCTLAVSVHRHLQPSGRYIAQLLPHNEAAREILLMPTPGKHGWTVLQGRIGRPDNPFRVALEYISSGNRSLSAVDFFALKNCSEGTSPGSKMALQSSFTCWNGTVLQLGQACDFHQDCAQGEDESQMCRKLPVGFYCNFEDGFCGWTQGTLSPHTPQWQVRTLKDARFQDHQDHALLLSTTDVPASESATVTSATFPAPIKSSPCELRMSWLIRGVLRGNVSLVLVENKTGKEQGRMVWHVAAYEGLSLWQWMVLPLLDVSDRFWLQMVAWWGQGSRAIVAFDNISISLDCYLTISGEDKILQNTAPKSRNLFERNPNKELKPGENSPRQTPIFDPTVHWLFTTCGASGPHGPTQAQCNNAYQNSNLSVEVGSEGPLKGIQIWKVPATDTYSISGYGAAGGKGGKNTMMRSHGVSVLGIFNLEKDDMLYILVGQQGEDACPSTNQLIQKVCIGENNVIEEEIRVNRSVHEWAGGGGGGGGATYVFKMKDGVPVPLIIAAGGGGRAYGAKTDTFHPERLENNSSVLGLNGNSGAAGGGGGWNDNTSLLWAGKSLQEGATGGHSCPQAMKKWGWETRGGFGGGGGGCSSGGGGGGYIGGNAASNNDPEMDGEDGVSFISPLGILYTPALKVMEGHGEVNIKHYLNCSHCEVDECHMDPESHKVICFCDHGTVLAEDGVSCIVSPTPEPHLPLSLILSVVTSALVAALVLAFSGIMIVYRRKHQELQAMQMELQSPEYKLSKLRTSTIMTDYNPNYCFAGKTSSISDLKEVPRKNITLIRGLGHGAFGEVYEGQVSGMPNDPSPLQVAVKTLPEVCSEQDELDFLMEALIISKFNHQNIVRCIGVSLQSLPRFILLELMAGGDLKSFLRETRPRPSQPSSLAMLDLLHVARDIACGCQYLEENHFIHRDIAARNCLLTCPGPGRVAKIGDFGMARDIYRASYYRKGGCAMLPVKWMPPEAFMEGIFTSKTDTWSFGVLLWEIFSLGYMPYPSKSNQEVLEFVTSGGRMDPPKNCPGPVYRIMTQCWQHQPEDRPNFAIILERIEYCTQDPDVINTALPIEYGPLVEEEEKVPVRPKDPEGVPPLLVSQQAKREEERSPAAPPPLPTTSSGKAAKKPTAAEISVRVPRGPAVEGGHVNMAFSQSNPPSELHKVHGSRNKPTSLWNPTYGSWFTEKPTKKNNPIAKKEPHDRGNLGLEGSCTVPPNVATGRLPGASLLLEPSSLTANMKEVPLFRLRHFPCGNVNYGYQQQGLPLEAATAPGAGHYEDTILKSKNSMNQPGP
T1 sequence (Q9UM73 19-1620): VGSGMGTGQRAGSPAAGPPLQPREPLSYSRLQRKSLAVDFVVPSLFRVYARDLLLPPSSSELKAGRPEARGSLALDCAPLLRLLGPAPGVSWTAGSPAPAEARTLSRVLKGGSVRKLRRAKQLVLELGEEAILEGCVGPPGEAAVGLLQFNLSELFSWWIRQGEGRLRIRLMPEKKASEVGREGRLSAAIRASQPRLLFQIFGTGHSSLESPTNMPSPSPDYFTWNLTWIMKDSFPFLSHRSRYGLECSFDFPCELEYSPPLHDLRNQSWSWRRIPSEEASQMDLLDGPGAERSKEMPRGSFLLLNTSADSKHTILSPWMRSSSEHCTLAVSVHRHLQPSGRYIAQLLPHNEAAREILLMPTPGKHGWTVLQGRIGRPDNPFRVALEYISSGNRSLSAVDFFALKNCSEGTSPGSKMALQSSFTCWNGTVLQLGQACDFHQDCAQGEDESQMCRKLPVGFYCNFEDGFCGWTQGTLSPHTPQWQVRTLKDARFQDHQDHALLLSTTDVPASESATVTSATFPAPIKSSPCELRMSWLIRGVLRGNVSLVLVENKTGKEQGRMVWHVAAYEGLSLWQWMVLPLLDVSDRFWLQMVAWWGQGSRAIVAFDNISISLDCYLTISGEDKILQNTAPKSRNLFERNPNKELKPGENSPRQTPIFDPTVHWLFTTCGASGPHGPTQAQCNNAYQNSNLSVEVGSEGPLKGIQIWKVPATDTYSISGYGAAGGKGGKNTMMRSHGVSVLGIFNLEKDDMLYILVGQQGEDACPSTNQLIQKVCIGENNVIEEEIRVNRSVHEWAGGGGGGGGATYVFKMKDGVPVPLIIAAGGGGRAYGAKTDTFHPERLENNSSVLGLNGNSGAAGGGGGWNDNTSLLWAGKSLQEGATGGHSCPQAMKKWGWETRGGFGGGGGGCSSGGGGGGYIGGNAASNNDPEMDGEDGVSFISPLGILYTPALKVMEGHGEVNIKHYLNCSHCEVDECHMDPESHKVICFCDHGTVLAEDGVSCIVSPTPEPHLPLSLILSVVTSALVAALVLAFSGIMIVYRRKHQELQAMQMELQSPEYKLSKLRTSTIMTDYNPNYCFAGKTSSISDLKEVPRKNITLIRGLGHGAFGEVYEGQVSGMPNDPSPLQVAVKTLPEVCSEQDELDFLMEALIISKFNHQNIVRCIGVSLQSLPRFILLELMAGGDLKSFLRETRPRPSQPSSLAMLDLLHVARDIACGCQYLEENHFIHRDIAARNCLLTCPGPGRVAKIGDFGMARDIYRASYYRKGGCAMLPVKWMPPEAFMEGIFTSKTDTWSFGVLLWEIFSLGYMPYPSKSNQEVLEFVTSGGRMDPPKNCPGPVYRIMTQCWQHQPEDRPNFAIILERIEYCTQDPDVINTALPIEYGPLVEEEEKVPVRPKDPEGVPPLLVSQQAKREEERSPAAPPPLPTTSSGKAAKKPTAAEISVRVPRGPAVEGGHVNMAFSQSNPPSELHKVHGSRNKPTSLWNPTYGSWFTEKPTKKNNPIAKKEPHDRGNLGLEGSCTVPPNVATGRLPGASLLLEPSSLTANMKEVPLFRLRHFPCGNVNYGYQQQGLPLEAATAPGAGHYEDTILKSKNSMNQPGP

`O=[N+]([O-])c1ccccc1Nc1ccnc2[nH]c3ccccc3c12` [R323, N-(2-nitrophenyl)-9H-pyrido[2,3-b]indol-4-amine]: the IC50 was 23 ± 12 µM on Recombinant ALK kinase (setting [4]), over 100 µM in test [1], over 100 µM in test [3] and 13 µM with ALK-negative U937 cells. The GI50 in test [2] came out at 0.21 ± 0.01 µM.
As for `O=[N+]([O-])c1ccccc1Nc1ccc2c(n1)[nH]c1ccc(/C=C/c3ccccc3)cc12` [R332, N-(2-nitrophenyl)-6-(2′-phenylethenyl)-9H-pyrido[2,3-b]indol-2-amine], the IC50 on Recombinant ALK kinase (setting [4]) came out at 13 ± 2 µM; in test [1], 20 ± 1 µM; in test [3], 3.6 µM; in the test on ALK-negative U937 cells, 1.9 µM. In test [2], the GI50 stood at 3 ± 0.8 µM.
In the same order, the values of `CCN(CC)CCCOc1ccc(-c2ccc3[nH]c4ncc(Cl)cc4c3c2)cc1` [R337, 3-(4-(3-chloro-9H-pyrido[2,3-b]indol-6-yl)phenoxy)-N,N-diethylpropan-1-amine] are 31 ± 9 µM, 2.6 µM, 2.4 µM, 1.1 µM and 2.5 µM.
Turning to `CCN(CC)CCCOc1ccc(-c2ccc3[nH]c4ncc(C=Cc5ccccc5)cc4c3c2)cc1` [R340], the IC50 at Recombinant ALK kinase (setting [4]) is 7 ± 1.5 µM; in test [1], 1 µM; in test [3], 0.7 µM; in the test on ALK-negative U937 cells it was 0.5 µM. For the same compound, the GI50 in test [2] was found to be 1.2 µM.
Consider `CCCC#Cc1ccc2c(n1)[nH]c1ccccc12` [R341, 2-(pent-1-ynyl)-9H-pyrido[2,3-b]indole], for which the IC50 on Recombinant ALK kinase (setting [4]) is 11 ± 0.1 µM; in test [1] it was 70 µM; in test [3] it was 48 µM; in the test with ALK-negative U937 cells, 17 µM. The GI50 in test [2] was found to be 74 µM.
On to `C(#Cc1ccc2c(n1)[nH]c1ccccc12)c1ccccc1` [R342, 2-(phenylethynyl)-9H-pyrido[2,3-b]indole], for which the IC50 in test [1] was over 100 µM; in test [3], 21 µM; in the test with ALK-negative U937 cells, 33 µM. For the same compound, the GI50 in test [2] is over 180 µM.
With `CN1CCN(CCOc2ccc(-c3ccc4[nH]c5ncc(Cl)cc5c4c3)cc2)CC1` [R347, 3-chloro-6-(4-(2-(4-methylpiperazin-1-yl)ethoxy)phenyl)-9H-pyrido[2,3-b]indole], the IC50 is 7.8 ± 0.9 µM on Recombinant ALK kinase (setting [4]), 2.4 µM in test [1], 2.6 µM in test [3] and 4.6 µM with ALK-negative U937 cells. For the same compound, the GI50 in test [2] was found to be 2.5 µM.
Consider `COc1ccc(/C=C/c2ccc3[nH]c4ncc(Cl)cc4c3c2)cc1` [R350, (E)-3-chloro-6-(2′-(4-methoxyphenyl)ethenyl)-9H-pyrido[2,3-b]indole], for which the IC50 is 5.1 µM at Recombinant ALK kinase (setting [5]); 35 µM on Recombinant ALK kinase (repeated determinations, 2nd or 'then', read-out: ALK IC50, 2nd / subsequent determination); over 100 µM in test [1]; over 100 µM in test [3]; over 100 µM in the test on ALK-negative U937 cells. For the same compound, the “ALK IC50, 3rd determination” value at Recombinant ALK kinase (repeated determinations, 3rd) is “inactive”. Also, the GI50 in test [2] is over 100 µM.
Take `Clc1cnc2[nH]c3ccc(CCc4ccccc4)cc3c2c1` [R351, 3-chloro-6-(2′-phenylethyl)-9H-pyrido[2,3-b]indole]: the IC50 was 66 µM on Recombinant ALK kinase (setting [5]), over 100 µM in test [1], 7.6 µM in test [3] and 23 µM in the test on ALK-negative U937 cells. Moreover, the “ALK IC50, 2nd / subsequent determination” value on Recombinant ALK kinase (setting [6]) is “inactive”. Also, the GI50 in test [2] is over 100 µM.
With `COc1cccc(Nc2cnc3[nH]c4ccc(CCc5ccccc5)cc4c3c2)c1` [R352, N-(3-methoxyphenyl)-6-(2′-phenylethyl)-9H-pyrido[2,3-b]indol-3-amine], the IC50 at Recombinant ALK kinase (setting [5]) is 19 µM; in test [1], 5.3 µM; in test [3], 8.6 µM; in the test with ALK-negative U937 cells, 13 µM. The “ALK IC50, 2nd / subsequent determination” value at Recombinant ALK kinase (setting [6]) was “inactive”. In addition, the GI50 in test [2] was 5.2 µM.
`c1ccc(CCc2ccc3[nH]c4ncc(-c5ccc6c(c5)OCO6)cc4c3c2)cc1` [R354, 3-(benzo[d][1,3]dioxol-5-yl)-6-(2′-phenylethyl)-9H-pyrido[2,3-b]indole]: the IC50 was 13 µM on Recombinant ALK kinase (setting [4]), 27 µM in test [1], 25 µM in test [3] and 27 µM in the test with ALK-negative U937 cells. For the same compound, the GI50 in test [2] was found to be 22 µM.
